Measured values: US9725465B2, “Biaryl acetamide compounds and methods of use thereof” (Ambit Biosciences Corporation, priority 2013, dated 2017)

Assays:
FLT3 kinase = FLT3 kinase (Homo sapiens (Human), UniProt P36888); experiment: Competition binding assay (Kd), FLT3
KIT kinase = KIT kinase (Homo sapiens (Human), UniProt P10721); experiment: Competition binding assay (Kd), KIT
Description: In certain embodiments, competition binding assays were performed as described in Fabian et al., Nature Biotechnology 2005, 23, 329-336.
Competition binding assays used herein were developed, validated and performed as described in Fabian et al., Nature Biotechnology 2005, 23, 329-336. Kinases were produced as fusions to T7 phage (See, Fabian et al. or WO04/015142) or alternatively, the kinases were expressed in HEK-293 cells and subsequently tagged with DNA for PCR detection (See, WO08/005,310). […] The liganded beads were blocked with excess biotin and washed with blocking buffer (SeaBlock (Pierce), 1% BSA, 0.05% Tween 20, 1 mM DTT) to remove unbound ligand and to reduce non-specific binding. […] Test compounds were prepared as 100× stocks in DMSO and diluted into the aqueous environment. Kds were determined using an eleven point threefold serial dilutions. DMSO or control compounds were was added to control assays lacking a test compound. […] The kinase concentration in the eluates was measured by quantitative PCR. […]

Sequence of FLT3 kinase (P36888 27-993): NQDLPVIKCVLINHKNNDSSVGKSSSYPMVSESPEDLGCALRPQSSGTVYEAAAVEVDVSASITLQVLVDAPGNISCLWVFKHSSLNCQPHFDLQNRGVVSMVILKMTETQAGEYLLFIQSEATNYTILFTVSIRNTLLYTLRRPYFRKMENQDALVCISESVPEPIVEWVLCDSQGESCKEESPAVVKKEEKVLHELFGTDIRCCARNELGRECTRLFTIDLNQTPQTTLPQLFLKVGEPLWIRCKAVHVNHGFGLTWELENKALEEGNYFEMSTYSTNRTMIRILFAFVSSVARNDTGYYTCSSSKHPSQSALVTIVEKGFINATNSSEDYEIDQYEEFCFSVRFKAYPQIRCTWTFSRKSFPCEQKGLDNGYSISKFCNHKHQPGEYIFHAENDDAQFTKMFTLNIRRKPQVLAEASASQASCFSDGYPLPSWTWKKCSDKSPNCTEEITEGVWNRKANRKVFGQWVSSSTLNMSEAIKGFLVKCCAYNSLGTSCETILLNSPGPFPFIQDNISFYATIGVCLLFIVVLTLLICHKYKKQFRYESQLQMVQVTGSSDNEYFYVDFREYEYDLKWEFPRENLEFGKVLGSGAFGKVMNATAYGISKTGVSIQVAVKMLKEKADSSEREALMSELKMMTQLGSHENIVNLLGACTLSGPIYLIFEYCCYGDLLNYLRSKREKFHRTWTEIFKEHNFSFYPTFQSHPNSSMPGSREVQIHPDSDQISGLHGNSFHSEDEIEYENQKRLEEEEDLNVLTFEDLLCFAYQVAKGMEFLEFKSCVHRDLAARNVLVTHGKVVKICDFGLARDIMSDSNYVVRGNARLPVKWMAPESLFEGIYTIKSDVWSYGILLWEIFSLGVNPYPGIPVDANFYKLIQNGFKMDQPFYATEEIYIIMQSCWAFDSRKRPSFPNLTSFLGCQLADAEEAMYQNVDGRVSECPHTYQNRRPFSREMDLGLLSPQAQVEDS
Sequence of KIT kinase (P10721 26-976): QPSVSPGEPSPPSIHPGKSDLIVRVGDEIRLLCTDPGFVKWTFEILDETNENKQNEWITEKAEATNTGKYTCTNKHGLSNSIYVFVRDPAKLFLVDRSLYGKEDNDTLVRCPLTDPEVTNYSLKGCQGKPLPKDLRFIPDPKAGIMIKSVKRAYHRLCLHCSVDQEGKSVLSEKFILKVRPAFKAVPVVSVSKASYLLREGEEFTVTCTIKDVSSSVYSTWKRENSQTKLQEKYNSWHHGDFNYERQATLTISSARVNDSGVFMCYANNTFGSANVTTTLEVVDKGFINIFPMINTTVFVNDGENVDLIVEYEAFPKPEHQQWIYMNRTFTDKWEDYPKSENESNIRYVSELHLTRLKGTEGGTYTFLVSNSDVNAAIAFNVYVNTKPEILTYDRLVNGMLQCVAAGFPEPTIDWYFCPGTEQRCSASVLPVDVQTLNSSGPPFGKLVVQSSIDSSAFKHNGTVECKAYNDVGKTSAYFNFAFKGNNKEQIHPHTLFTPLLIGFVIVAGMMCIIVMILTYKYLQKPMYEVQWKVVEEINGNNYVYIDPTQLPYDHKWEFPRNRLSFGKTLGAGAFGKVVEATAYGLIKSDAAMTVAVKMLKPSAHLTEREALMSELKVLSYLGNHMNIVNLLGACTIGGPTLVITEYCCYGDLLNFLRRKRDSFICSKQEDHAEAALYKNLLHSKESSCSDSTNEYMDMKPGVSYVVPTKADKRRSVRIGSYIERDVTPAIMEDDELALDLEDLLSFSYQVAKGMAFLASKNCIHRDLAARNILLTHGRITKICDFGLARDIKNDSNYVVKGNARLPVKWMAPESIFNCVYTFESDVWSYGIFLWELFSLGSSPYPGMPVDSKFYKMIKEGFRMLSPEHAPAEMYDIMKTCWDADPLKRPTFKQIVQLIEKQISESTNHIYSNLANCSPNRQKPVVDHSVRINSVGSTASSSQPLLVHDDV

Row | Kd (FLT3 kinase; competition binding assay) | Kd (KIT kinase; competition binding assay) | Kd (FLT3 kinase; competition binding) | Kd (KIT kinase; competition binding) | Structure (SMILES)
1 | < 5 nM | < 5 nM |  |  | O=C(Cc1ccc(-c2cnc3[nH]cnc3n2)cc1)Nc1cc(C2(C(F)(F)F)CC2)on1 [Example 14, 2-(4-(1H-imidazo[4,5-b]pyrazin-5-yl)phenyl)-N-(5-(1-(trifluoromethyl)cyclopropyl)isoxazol-3-yl)acetamide]
2 |  |  | < 5 nM | < 5 nM | COc1cc2ncc(-c3cc(F)c(CC(=O)Nc4cc(C5(C(F)(F)F)CC5)on4)c(F)c3)nc2cc1OC [Example 226, 2-[4-(6,7-dimethoxyquinoxalin-2-yl)-2,6-difluoro-phenyl]-N-[5-[1-(trifluoromethyl)cyclo-propyl]isoxazol-3-yl]acetamide]
3 |  |  | < 5 nM | < 5 nM | COc1cc2nc(-c3ccc(CC(=O)Nc4cc(C5(C(F)(F)F)CC5)on4)c(F)c3)cnc2cc1OCCCO [Example 195, 2-[2-fluoro-4-[6-(3-hydroxypropoxy)-7-methoxy-quinoxalin-2-yl]phenyl]-N-[5-[1-(trifluoromethyl)cyclo-propyl]isoxazol-3-yl]acetamide]
4 | < 5 nM | < 5 nM |  |  | Cn1ccc2ncc(-c3ccc(CC(=O)Nc4cc(C5(C(F)(F)F)CC5)on4)cc3)nc21 [Example 9, 2-(4-(5-methyl-5H-pyrrolo[2,3-b]pyrazin-3-yl)phenyl)-N-(5-(1-(trifluoromethyl)cyclopropyl)isoxazol-3-yl)acetamide]
5 | < 5 nM | < 5 nM |  |  | COc1cc2nc(-c3ccc(CC(=O)Nc4cc(C5(C(F)(F)F)CC5)on4)c(F)c3)cnc2cc1OCCN1CCOCC1(C)C [Example 96, 2-(4-(6-(2-(3,3-dimethylmorpholino)ethoxy)-7-methoxyquinoxalin-2-yl)-2-fluorophenyl)-N-(5-(1-(trifluoromethyl)cyclopropyl)isoxazol-3-yl)acetamide]
6 |  |  | < 5 nM | < 5 nM | COc1cc2cc(-c3ccc(CC(=O)Nc4cc(C(C)(C)C(F)(F)F)on4)c(F)c3)cnc2cc1OCCN1CC[C@@H](O)C1 [Example 199, 2-[2-fluoro-4-[7-[2-[(3R)-3-hydroxypyrrolidin-1-yl]ethoxy]-6-methoxy-3-quinolyl]phenyl]-N-[5-(2,2,2-trifluoro-1,1-dimethyl-ethyl)isoxazol-3-yl]acetamide]
7 |  |  | < 5 nM | < 5 nM | CNCCOc1cc2nc(-c3ccc(CC(=O)Nc4cc(C(C)(C)C(F)(F)F)on4)c(F)c3)cnc2cc1OC [Example 196, 2-[2-fluoro-4-[6-methoxy-7-[2-(methyl-amino)ethoxy]quinoxalin-2-yl]phenyl]-N-[5-(2,2,2-trifluoro-1,1-dimethyl-ethyl)isoxazol-3-yl]acetamide]
8 |  |  | < 5 nM | < 5 nM | COc1cc2ncc(-c3ccc(CC(=O)Nc4cc(C(C)(C)C(F)(F)F)on4)c(F)c3)nc2cc1OCCN1CCOCC1 [Example 187, 2-[2-fluoro-4-[6-methoxy-7-(2-morpholino-ethoxy)quinoxalin-2-yl]phenyl]-N-[5-(2,2,2-trifluoro-1,1-dimethyl-ethyl)isoxazol-3-yl]acetamide]
9 | < 5 nM | < 5 nM |  |  | COc1cc2nc(-c3ccc(CC(=O)Nc4cc(C5(C(F)(F)F)CC5)on4)c(F)c3)cnc2cc1OCCN1CC(C)OC(C)C1 (stereo not drawn) [Example 174, 2-[4-[6-[2-(2,6-dimethylmorpholin-4-yl)ethoxy]-7-methoxy-quinoxalin-2-yl]-2-fluoro-phenyl]-N-[5-[1-(trifluoro-methyl)cyclo-propyl]isoxazol-3-yl]acetamide]
10 |  |  | < 5 nM | < 5 nM | COc1cc2cc(-c3ccc(CC(=O)Nc4cc(C(C)(C)C(F)(F)F)on4)c(F)c3)cnc2cc1OCCN(C)CCO [Example 200, 2-[2-fluoro-4-[7-[2-[2-hydroxy-ethyl(methyl)amino]ethoxy]-6-methoxy-3-quinolyl]phenyl]-N-[5-(2,2,2-trifluoro-1,1-dimethyl-ethyl)isoxazol-3-yl]acetamide]
11 | < 5 nM | < 5 nM |  |  | COc1cc2nc(-c3ccc(CC(=O)Nc4cc(C5(C(F)(F)F)CC5)on4)c(F)c3)cnc2cc1OCC#N [Example 183, 2-[4-[6-(cyanomethoxy)-7-methoxy-quinoxalin-2-yl]-2-fluoro-phenyl]-N-[5-[1-(trifluoromethyl)cyclo-propyl]isoxazol-3-yl]acetamide]
12 |  |  | < 5 nM | < 5 nM | COc1cc2ncc(-c3ccc(CC(=O)Nc4cc(C(C)(C)C(F)(F)F)on4)c(F)c3)cc2cc1OCCNC(C)=O [Example 205, 2-[4-[6-(2-acetamidoethoxy)-7-methoxy-3-quinolyl]-2-fluoro-phenyl]-N-[5-(2,2,2-trifluoro-1,1-dimethyl-ethyl)isoxazol-3-yl]acetamide]
13 |  |  | < 5 nM | < 5 nM | COc1cc2nc(-c3ccc(CC(=O)Nc4cc(C5(C(F)(F)F)CC5)n[nH]4)c(F)c3)cnc2cc1OCCN1CCOCC1 [Example 230, 2-[2-fluoro-4-[7-methoxy-6-(2-morpholino-ethoxy)quinoxalin-2-yl]phenyl]-N-[3-[1-(trifluoro-methyl)cyclopropyl]-1H-pyrazol-5-yl]acetamide]
14 |  |  | < 5 nM | < 5 nM | COc1cc2nc(-c3ccc(CC(=O)Nc4cc(C(C)(C)C)on4)cc3)cnc2cc1OCCN1CCOCC1 [Example 215, N-(5-tert-butylisoxazol-3-yl)-2-[4-[7-methoxy-6-(2-morpholino-ethoxy)quinoxalin-2-yl]phenyl]acetamide]
15 |  |  | < 5 nM | < 5 nM | COc1cc2ncc(-c3cc(F)c(CC(=O)Nc4cc(C(C)(C)C(F)(F)F)on4)cc3F)nc2cc1OC [Example 219, 2-[4-(6,7-dimethoxyquinoxalin-2-yl)-2,5-difluoro-phenyl]-N-[5-(2,2,2-trifluoro-1,1-dimethyl-ethyl)isoxazol-3-yl]acetamide]
16 |  |  | < 5 nM | < 5 nM | COc1cc2nc(-c3ccc(CC(=O)Nc4cc(C5(C(F)(F)F)CC5)on4)c(F)c3)cnc2cc1OCCN1CCS(=O)(=O)CC1 [Example 216, 2-[4-[6-[2-(1,1-dioxo-1,4-thiazinan-4-yl)ethoxy]-7-methoxy-quinoxalin-2-yl]-2-fluoro-phenyl]-N-[5-[1-(trifluoromethyl)cyclo-propyl]isoxazol-3-yl]acetamide]
17 | < 5 nM | < 5 nM |  |  | COc1cc2ncc(-c3ccc(CC(=O)Nc4cc(C(C)(C)C(F)(F)F)on4)c(F)c3)cc2cc1OCCO [Example 178, 2-[2-fluoro-4-[6-(2-hydroxyethoxy)-7-methoxy-3-quinolyl]phenyl]-N-[5-(2,2,2-trifluoro-1,1-dimethyl-ethyl)isoxazol-3-yl]acetamide]
18 | < 5 nM | < 5 nM |  |  | COc1cc2ncc(-c3ccc(CC(=O)Nc4cc(C(C)(C)C(F)(F)F)n[nH]4)c(F)c3)nc2cc1OC [Example 182, 2-[4-(6,7-dimethoxyquinoxalin-2-yl)-2-fluoro-phenyl]-N-[3-(2,2,2-trifluoro-1,1-dimethyl-ethyl)-1H-pyrazol-5-yl]acetamide]
19 |  |  | < 5 nM | < 5 nM | COc1cc2nc(-c3ccc(CC(=O)Nc4cc(C5(C(F)(F)F)CC5)on4)c(F)c3)cnc2cc1OCC(C)(C)O [Example 249, 2-[2-fluoro-4-[6-(2-hydroxy-2-methyl-propoxy)-7-methoxy-quinoxalin-2-yl]phenyl]-N-[5-[1-(trifluoro-methyl)cyclopropyl]isoxazol-3-yl]acetamide]
20 | < 5 nM | 5 to 20 nM |  |  | COc1cc(OC)c2cc(-c3ccc(CC(=O)Nc4cc(C5(C(F)(F)F)CC5)on4)cc3)cnc2c1 [Example 13, 2-(4-(5,7-dimethoxyquinolin-3-yl)phenyl)-N-(5-(1-(trifluoromethyl)cyclopropyl)isoxazol-3-yl)acetamide]
21 |  |  | < 5 nM | < 5 nM | COc1cc2nc(-c3ccc(CC(=O)Nc4cc(C(C)(C)C(F)(F)F)on4)c(F)c3)cnc2cc1OCCCN1CCOCC1 [Example 209, 2-[2-fluoro-4-[7-methoxy-6-(3-morpholino-propoxy)quinoxalin-2-yl]phenyl]-N-[5-(2,2,2-trifluoro-1,1-dimethyl-ethyl)isoxazol-3-yl]acetamide]
22 | < 5 nM | < 5 nM |  |  | COc1cc2nc(-c3ccc(CC(=O)Nc4cc(C5(C(F)(F)F)CC5)on4)c(F)c3)cnc2cc1OCCN1CCN(C)CC1 [Example 81, 2-(2-fluoro-4-(7-methoxy-6-(2-(4-methylpiperazin-1-yl)ethoxy)quinoxalin-2-yl)phenyl)-N-(5-(1-(trifluoromethyl)cyclopropyl)isoxazol-3-yl)acetamide]
23 |  |  | < 5 nM | < 5 nM | COc1cc2ncc(-c3ccc(CC(=O)Nc4cc(C(C)(C)C(F)(F)F)on4)cc3F)nc2cc1OC [Example 217, 2-[4-(6,7-dimethoxyquinoxalin-2-yl)-3-fluoro-phenyl]-N-[5-(2,2,2-trifluoro-1,1-dimethyl-ethyl)isoxazol-3-yl]acetamide]
24 |  | < 5 nM |  |  | COc1cc2nc(-c3ccc(CC(=O)Nc4cc(C(C)(C)C)on4)c(F)c3)cnc2cc1OCCN1CCOCC1 [Example 92, N-(5-(tert-butyl)isoxazol-3-yl)-2-(2-fluoro-4-(7-methoxy-6-(2-morpholinoethoxy)quinoxalin-2-yl)phenyl)acetamide]

Row | Structure (SMILES) | Kd (FLT3 kinase; competition binding assay) | Kd (KIT kinase; competition binding assay) | Kd (FLT3 kinase; competition binding) | Kd (KIT kinase; competition binding)
25 | COc1cc2nc(-c3ccc(CC(=O)Nc4cc(C(C)(C)C(F)(F)F)on4)c(F)c3)cnc2cc1OCCN1CCOCC1 [Example 171, 2-[2-fluoro-4-[7-methoxy-6-(2-morpholino-ethoxy)quinoxalin-2-yl]phenyl]-N-[5-(2,2,2-trifluoro-1,1-dimethyl-ethyl)isoxazol-3-yl]acetamide] |  | < 5 nM |  | 
